Source: ChEMBL document CHEMBL1132861, “Synthesis, radiolabelling and biological characterization of (D)-7-iodo-N-(1-phosphonoethyl)-5-aminomethylquinoxaline-2,3-dione, a glycine-binding site antagonist of NMDA receptors” (Bioorg Med Chem Lett, 2000)

Columns and labels:
Mus musculus [1] = test: Effective dose of the intravenously administered compound, protecting the mice in the maximal electroshock test; assay type: functional; conditions: iv
[2] = target: Glutamate [NMDA] receptor; test: Compound has been evaluated for its binding affinity towards N-methyl-D-aspartate glutamate receptor by displacing the radioligand [3H]CGP-39653; assay type: protein-complex assay
Mus musculus [3] = test: Percent protection offered by the compound (10 mg/kg) in maximal electroshock test in mice, 60 min after intravenous administration; assay type: functional
[4] = target: Glutamate receptor ionotropic AMPA (Homo sapiens, UniProt P42261+P42262+P42263+P48058); test: Compound has been evaluated for its binding affinity towards Ionotropic glutamate receptor AMPA by displacing the radioligand [3H]AMPA; assay type: protein-complex assay
[5] = target: Glutamate receptor ionotropic kainate; test: Compound has been evaluated for its binding affinity towards kainate by displacing the radioligand [3H]kainate; assay type: protein-complex assay
[6] = target: Glutamate receptor ionotropic, NMDA 1 (Homo sapiens, UniProt Q05586); test: Compound was evaluated for its binding affinity for the glycine binding site on N-methyl-D-aspartate glutamate receptor by using [3H]MDL-105519 binding assay
[7] = target: Glutamate [NMDA] receptor; test: Compound has been evaluated for its binding affinity towards N-methyl-D-aspartate glutamate receptor by displacing the radioligand [3H]MK-801; assay type: protein-complex assay
Mus musculus [8] = species: Mus musculus; test: Biodistribution of the injected compound in spleen of female BALB/C mice for 0.5 hours; assay type: ADME, organism-based; conditions: in vivo
Mus musculus [9] = species: Mus musculus; test: Biodistribution of the injected compound in lung of female BALB/C mice for 0.5 hours; assay type: ADME, organism-based; conditions: in vivo
Mus musculus [10] = species: Mus musculus; test: Biodistribution of the injected compound in brain of female BALB/C mice for 5 hours; assay type: ADME, organism-based; conditions: in vivo
Mus musculus [11] = species: Mus musculus; test: Biodistribution of the injected compound in lung of female BALB/C mice for 2.5 hours; assay type: ADME, organism-based; conditions: in vivo
[12] = Octanol/water distribution coefficient at pH 7.4; assay type: physicochemical
Mus musculus [13] = species: Mus musculus; test: Biodistribution of the injected compound in stomach of female BALB/C mice for 2.5 hours; assay type: ADME, organism-based; conditions: in vivo
Mus musculus [14] = species: Mus musculus; test: Biodistribution of the injected compound in bone of female BALB/C mice for 2.5 hours; assay type: ADME, organism-based, Bone element; conditions: in vivo
Mus musculus [15] = species: Mus musculus; test: Biodistribution of the injected compound in brain of female BALB/C mice for 2.5 hours; assay type: ADME, organism-based; conditions: in vivo
Mus musculus [16] = species: Mus musculus; test: Biodistribution of the injected compound in spleen of female BALB/C mice for 5 hours; assay type: ADME, organism-based; conditions: in vivo
Mus musculus [17] = species: Mus musculus; test: Biodistribution of the injected compound in brain of female BALB/C mice for 0.5 hours; assay type: ADME, organism-based; conditions: in vivo
[18] = Octanol/water distribution coefficient at pH 4; assay type: physicochemical
[19] = Octanol/water distribution coefficient at pH 4.8; assay type: physicochemical
Mus musculus [20] = species: Mus musculus; test: Biodistribution of the injected compound in lung of female BALB/C mice for 5 hours; assay type: ADME, organism-based; conditions: in vivo
Mus musculus [21] = species: Mus musculus; test: Biodistribution of the injected compound in muscle of female BALB/C mice for 0.5 hours; assay type: ADME, organism-based, Muscle tissue; conditions: in vivo
Mus musculus [22] = species: Mus musculus; test: Biodistribution of the injected compound in intestines of female BALB/C mice for 5 hours; assay type: ADME, organism-based, Intestine; conditions: in vivo
[23] = Octanol/water distribution coefficient at pH 5.5; assay type: physicochemical
Mus musculus [24] = species: Mus musculus; test: Biodistribution of the injected compound in kidneys of female BALB/C mice for 5 hours; assay type: ADME, organism-based, Kidney; conditions: in vivo
Mus musculus [25] = species: Mus musculus; test: Biodistribution of the injected compound in liver of female BALB/C mice for 2.5 hours; assay type: ADME, organism-based; conditions: in vivo
Mus musculus [26] = species: Mus musculus; test: Biodistribution of the injected compound in kidneys of female BALB/C mice for 2.5 hours; assay type: ADME, organism-based, Kidney; conditions: in vivo
Mus musculus [27] = species: Mus musculus; test: Biodistribution of the injected compound in muscle of female BALB/C mice for 5 hours; assay type: ADME, organism-based, Muscle tissue; conditions: in vivo
[28] = Octanol/water distribution coefficient at pH 3; assay type: physicochemical
Mus musculus [29] = species: Mus musculus; test: Biodistribution of the injected compound in kidneys of female BALB/C mice for 0.5 hours; assay type: ADME, organism-based, Kidney; conditions: in vivo
Mus musculus [30] = species: Mus musculus; test: Biodistribution of the injected compound in liver of female BALB/C mice for 0.5 hours; assay type: ADME, organism-based; conditions: in vivo
Mus musculus [31] = species: Mus musculus; test: Biodistribution of the injected compound in blood of female BALB/C mice for 0.5 hours; assay type: ADME, organism-based; conditions: in vivo
Mus musculus [32] = species: Mus musculus; test: Biodistribution of the injected compound in intestines of female BALB/C mice for 0.5 hours; assay type: ADME, organism-based, Intestine; conditions: in vivo
Mus musculus [33] = species: Mus musculus; test: Biodistribution of the injected compound in heart of female BALB/C mice for 2.5 hours; assay type: ADME, organism-based; conditions: in vivo
Mus musculus [34] = species: Mus musculus; test: Biodistribution of the injected compound in heart of female BALB/C mice for 5 hours; assay type: ADME, organism-based; conditions: in vivo
Mus musculus [35] = species: Mus musculus; test: Biodistribution of the injected compound in heart of female BALB/C mice for 0.5 hours; assay type: ADME, organism-based; conditions: in vivo
Mus musculus [36] = species: Mus musculus; test: Biodistribution of the injected compound in bone of female BALB/C mice for 5 hours; assay type: ADME, organism-based, Bone element; conditions: in vivo
Mus musculus [37] = species: Mus musculus; test: Biodistribution of the injected compound in stomach of female BALB/C mice for 5 hours; assay type: ADME, organism-based; conditions: in vivo
[38] = Octanol/water distribution coefficient at pH 7.5; assay type: physicochemical
Mus musculus [39] = species: Mus musculus; test: Biodistribution of the injected compound in bone of female BALB/C mice for 0.5 hours; assay type: ADME, organism-based, Bone element; conditions: in vivo
Mus musculus [40] = species: Mus musculus; test: Biodistribution of the injected compound in stomach of female BALB/C mice for 0.5 hours; assay type: ADME, organism-based; conditions: in vivo
Mus musculus [41] = species: Mus musculus; test: Biodistribution of the injected compound in spleen of female BALB/C mice for 2.5 hours; assay type: ADME, organism-based; conditions: in vivo
Mus musculus [42] = species: Mus musculus; test: Biodistribution of the injected compound in liver of female BALB/C mice for 5 hours; assay type: ADME, organism-based; conditions: in vivo
[43] = Octanol/water distribution coefficient at pH 6.5; assay type: physicochemical
Mus musculus [44] = species: Mus musculus; test: Biodistribution of the injected compound in intestines of female BALB/C mice for 2.5 hours; assay type: ADME, organism-based, Intestine; conditions: in vivo
Mus musculus [45] = species: Mus musculus; test: Biodistribution of the injected compound in muscle of female BALB/C mice for 2.5 hours; assay type: ADME, organism-based, Muscle tissue; conditions: in vivo
Mus musculus [46] = species: Mus musculus; test: Biodistribution of the injected compound in blood of female BALB/C mice for 5 hours; assay type: ADME, organism-based; conditions: in vivo
Mus musculus [47] = species: Mus musculus; test: Biodistribution of the injected compound in blood of female BALB/C mice for 2.5 hours; assay type: ADME, organism-based; conditions: in vivo
[48] = target: Glutamate receptor ionotropic kainate (Homo sapiens) (UniProt P39086+Q16478+Q16099+Q13002+Q13003); test: Inhibition of binding of [3H]kainate to kainate at 10 uM compound concentration; assay type: protein-complex assay

With C[C@@H](NCc1cc(Br)cc2nc(O)c(O)nc12)P(=O)(O)O the ED50 (Mus musculus [1]) was 5 mg/kg, the IC50 [2] was > 10000 nM and the Protection (Mus musculus [3]) was 60%. The IC50 [4] was 3000 nM, the IC50 [5] was 2700 nM and the IC50 [6] was 5 nM. The IC50 [7] was > 10000 nM.

In the case of C[C@@H](NCc1cc(C(F)(F)F)cc2[nH]c(=O)c(=O)[nH]c12)P(=O)(O)O, the IC50 [6] is reported as 8 nM.

Compound C[C@@H](NCc1cc(F)cc2[nH]c(=O)c(=O)[nH]c12)P(=O)(O)O has an IC50 [6] of 9 nM.

Work on C[C@@H](NCc1cc(Cl)cc2nc(O)c(O)nc12)P(=O)(O)O yielded an IC50 [6] of 6 nM.

C[C@@H](NCc1cc(I)cc2[nH]c(=O)c(=O)[nH]c12)P(=O)(O)O showed an Injected dose/g tissue (Mus musculus [8]) of 0.46%, an Injected dose/g tissue (Mus musculus [9]) of 0.96% and an Injected dose/g tissue (Mus musculus [10]) of 0.01%. The Injected dose/g tissue (Mus musculus [11]) was 0.4%, the logD [12] was -2.5 and the IC50 [2] was > 10000 nM. For the same compound, the Injected dose/g tissue (Mus musculus [13]) was 0.23%, the IC50 [4] was 340 nM and the Injected dose/g tissue (Mus musculus [14]) was 0.92%. For the same compound, the Injected dose/g tissue (Mus musculus [15]) was 0.01%, the Injected dose/g tissue (Mus musculus [16]) was 0.21% and the Injected dose/g tissue (Mus musculus [17]) was 0.03%. The logD [18] was -1.2, the logD [19] was -1.5 and the Injected dose/g tissue (Mus musculus [20]) was 0.38%. The Injected dose/g tissue (Mus musculus [21]) was 0.4%, the Injected dose/g tissue (Mus musculus [22]) was 0.2% and the logD [23] was -1.6. It also gave an Injected dose/g tissue (Mus musculus [24]) of 2.98%, an Injected dose/g tissue (Mus musculus [25]) of 0.49% and an Injected dose/g tissue (Mus musculus [26]) of 3.29%. The Injected dose/g tissue (Mus musculus [27]) was 0.19%, the logD [28] was -0.8 and the Injected dose/g tissue (Mus musculus [29]) was 6.68%. The Injected dose/g tissue (Mus musculus [30]) was 0.92%, the IC50 [6] was 8 nM and the IC50 [7] was > 10000 nM. For the same compound, the Injected dose/g tissue (Mus musculus [31]) was 1.1%, the Injected dose/g tissue (Mus musculus [32]) was 0.44% and the Injected dose/g tissue (Mus musculus [33]) was 0.93%. It also gave an Injected dose/g tissue (Mus musculus [34]) of 0.82%, an Injected dose/g tissue (Mus musculus [35]) of 1.34% and an Injected dose/g tissue (Mus musculus [36]) of 0.78%. The Injected dose/g tissue (Mus musculus [37]) was 0.22%, the logD [38] was -1.8 and the Injected dose/g tissue (Mus musculus [39]) was 1.46%. It also gave an Injected dose/g tissue (Mus musculus [40]) of 0.58%, an Injected dose/g tissue (Mus musculus [41]) of 0.23% and an Injected dose/g tissue (Mus musculus [42]) of 0.43%. It also gave a logD [43] of -1.7, an Injected dose/g tissue (Mus musculus [44]) of 0.22% and an Injected dose/g tissue (Mus musculus [45]) of 0.21%. It also gave an Injected dose/g tissue (Mus musculus [46]) of 0.49% and an Injected dose/g tissue (Mus musculus [47]) of 0.54%.

For C[C@@H](NCc1cc(I)cc2nc(O)c(O)nc12)P(=O)(O)O, the ED50 (Mus musculus [1]) was 10 mg/kg, the Protection (Mus musculus [3]) was 20% and the inhibition [48] was 49%.

Compound C[C@@H](NCc1cc(C#N)cc2[nH]c(=O)c(=O)[nH]c12)P(=O)(O)O has an IC50 [6] of 76 nM.

C[C@@H](NCc1cc([N+](=O)[O-])cc2[nH]c(=O)c(=O)[nH]c12)[P+]([O-])(O)O showed an IC50 [6] of 32 nM.
